Patent US20130310347A1, “MULTI-MODALITY MOLECULAR IMAGING HIGH-THROUGHPUT ASSAY FOR IDENTIFYING HEAT SHOCK PROTEIN 90 (HSP90) INHIBITORS” (The Board of Trustees of the Leland Stanford Junior …, priority 2012, published 2013)

Assays:
Hsp90α/p23 interactions = biological target: T1, Hsp90α/p23 interactions (Homo sapiens, UniProt P07900); test: RL/FL bioluminescence imaging of 293T xenografts in living mice; type: in vivo; settings: CP9 80 mg/kg i.p.
T1 construct: expressed in transfected cells; also with FL-eGFP reporter (293Tα-FG) and as xenografts in nude mice
Procedure: (§1) Maximum radiance (photons/sec/cm^2/sr) from RL signals was normalized to that of FL signals at each site and at each time point to account for the effect of CP9 on cell proliferation. The RL/FL ratios were normalized to that of time 0 h to monitor the individual change in Hsp90(α/β)/p23 interactions in each mouse over time. Results were expressed as mean±S.E.M for the control and treatment groups for Hsp90α/p23 (left panel) and Hsp90β/p23 interactions (right panel).
(§2) To monitor the inhibition of Hsp90(α/β)/p23 interactions by CP9 in living mice, a second reporter (FL-eGFP) was introduced into the 293T cells stably expressing Hsp90(α/β)/p23 split RL reporters (now referred as 293T(α/β)—FG cells). Although ^18F-FLT has also been used to monitor tumor cell proliferation in small animals by PET (Tseng et al., (2005) J. Nucl. Med. 46: 1851-1857), FL imaging was used because of the higher sensitivity and ease of performing sequentially with RL imaging for Hsp90(α/β)/p23 interactions. […] Baseline RL and FL signals in each implanted tumor were determined upon i.v. substrate injection.
(§3) Based on experience with the Hsp90 inhibitors 17-AAG and PU-H71, CP9 (80 mg/kg) (n=5) was tested in animal experiments by i.p. injection with four doses at […] post baseline imaging (FIG. 7A). An equal volume of DMSO was injected into the carrier control group (n=5, FIG. 7B). Mice treated with 75 mg/kg PU-H71 (n=2) served as positive controls. Mice were re-imaged for Hsp90(α/β)/p23 interactions and cell proliferation via RL (FIG. 5B, left panels) and FL (FIG. 5B, right panels) imaging at the time points indicated, respectively. To account for the effect of cell number on Hsp90(α/β)/p23 interactions, RL signals were normalized to FL signals for each tumor at each time point, prior to normalization to that of time 0 h.
(§4) Mice were gas anesthetized using isofluorane (2% in 100% oxygen, 1 L/min) during all injection and imaging procedures and kept at 37° C. Mice were imaged using a cooled CCD camera (IVIS 200, Caliper Life Sciences, Mountain View, Calif.). […] Baseline RL activities in the implanted tumors in living mice were determined by i.v. injection of 30 μg cltz (in 150 μl of 5% ethanol: 95% PBS) and image acquisition of 3 mins. After a 30 mins wait for RL signals to decay, FL activities were determined by i.v. injection of 163 μg of D-Luc in 100 μl PBS with image acquisition of 10 sequences for 15 sec each to obtain the peak max radiance. […] Maximum radiance of RL was divided by that of FL signals at each time point, prior to normalization to that of time 0 hr for each individual mouse, and expressed as average radiance±S.E.M for each treatment group.

Hsp90β/p23 interactions = biological target: T2, Hsp90β/p23 interactions (Homo sapiens, UniProt P08238); test: as above; type: in vivo; settings: CP9 80 mg/kg i.p., p>0.05
T2 construct: expressed in transfected cells; also with FL-eGFP reporter (293Tβ-FG) and as xenografts in nude mice
Procedure: as §1, §2, §3, §4

[1] = test system: Hsp90 client proteins (phosphorylated/total Akt, Raf-1); test: Ex vivo western blotting of excised tumors; type: in vivo, mice; settings: western blotting after last imaging time point; p>0.05
Procedure: To determine if the inhibition of Hsp90(α/β)/p23 interactions also leads to degradation of Hsp90 client proteins in mice, tumors were excised from sacrificed mice after the last PET/CT imaging time point. The expression of phosphorylated/total Akt and Raf-1 in tumor lysates was determined by western blotting. α-tubulin was used as a loading control.
Mice were euthanized after the last imaging time points and tumors were excised and homogenized in tissue extraction buffer in the presence of HALT® protease and phosphatase inhibitors (all from Pierce, Ill.). Protein concentrations were determined by Biorad Protein Dc assay. The expression of phosphorylated/total Akt, Raf-1 and […] were determined by western blotting as described in Chan et al., (2008) Cancer Res. 68: 216-226. Western blot images were quantitated using NIH Image J, and expressed as the ratio of target protein/α-tubulin for each treatment group.

T2 sequence (P08238 whole entry): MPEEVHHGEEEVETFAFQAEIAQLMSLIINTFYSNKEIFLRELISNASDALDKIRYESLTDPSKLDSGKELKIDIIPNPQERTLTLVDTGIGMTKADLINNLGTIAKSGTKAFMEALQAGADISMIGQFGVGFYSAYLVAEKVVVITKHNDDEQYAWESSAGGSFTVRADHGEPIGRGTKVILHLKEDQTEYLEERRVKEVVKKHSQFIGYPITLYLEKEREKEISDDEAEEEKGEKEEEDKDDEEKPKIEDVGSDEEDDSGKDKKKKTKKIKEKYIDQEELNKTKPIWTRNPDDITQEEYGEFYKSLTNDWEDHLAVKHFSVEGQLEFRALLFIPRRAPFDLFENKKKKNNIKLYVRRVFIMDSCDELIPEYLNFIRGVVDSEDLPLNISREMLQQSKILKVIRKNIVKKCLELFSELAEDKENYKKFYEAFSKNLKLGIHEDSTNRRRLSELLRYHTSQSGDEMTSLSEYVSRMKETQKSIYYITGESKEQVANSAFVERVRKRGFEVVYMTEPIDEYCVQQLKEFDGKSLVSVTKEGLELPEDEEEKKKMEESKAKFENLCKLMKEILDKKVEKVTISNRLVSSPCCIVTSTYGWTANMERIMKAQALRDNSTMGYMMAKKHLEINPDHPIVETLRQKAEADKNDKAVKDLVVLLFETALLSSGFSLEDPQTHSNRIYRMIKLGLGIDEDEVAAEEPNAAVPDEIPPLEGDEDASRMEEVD

Cc1cc(NC(=O)CSc2nc(-c3cccs3)cc(C(F)(F)F)n2)no1 [CP9, N-(5-methylisoxazol-3-yl)-2-(4-(thiophen-2-yl)-6-(trifluoromethyl)pyrimidin-2-ylthio)acetamide]
RL/FL ratio in Hsp90α/p23 xenografts, normalized to time 0 h (Hsp90α/p23 interactions; 14 h): 122±39% | RL/FL ratio in Hsp90α/p23 xenografts, normalized to time 0 h (Hsp90α/p23 interactions; 38 h, p<0.05 vs carrier control): 79±19% | RL/FL ratio in Hsp90β/p23 xenografts, normalized to time 0 h (Hsp90β/p23 interactions; 14 h): 58±18% | RL/FL ratio in Hsp90β/p23 xenografts, normalized to time 0 h (Hsp90β/p23 interactions; 38 h): 83±42% | Hsp90 client proteins in excised tumors relative to carrier control [1]: did not lead to significant degradation
